Test results from PMC6572184, “New γ-Halo-δ-lactones and δ-Hydroxy-γ-lactones with Strong Cytotoxic Activity” (Molecules, 2019).
Read-outs that look alike come from different tables or passages of the source.

What was measured:
[1] = tested on: Escherichia coli ATCC 8739; experiment: Bactericidal activity, CFU counting method; type: cell-based; conditions: E. coli ATCC 8739; 18 h at 37 °C; Control 9.47, Control with DMSO 9.30
Procedure: (§1) The bacterial cultures: Escherichia coli ATCC 8739 and Staphylococcus aureus ATCC 65389 were grown on Luria–Bertani Agar for 18 h at 37 ^∘ C. The strain suspension was prepared in 0.85% saline, with an optical density equivalent to a 0.5 McFarland standard. Next, the following mixtures were prepared: 180 μ L of sterile enriched broth (BTL), 10 μ L of the bacterial suspension and 10 μ L of the tested compound (range 0.1–50 μ g/mL) solubilized in DMSO. As a negative control, only DMSO was added. As a sterility control, 180 μ L of BTL and 20 μ L saline were used. The microtiter plate was incubated at 37 ^∘ C for 18 h. The colony forming unit (CFU) method was used to evaluate the microbial population. The experiment was repeated three times. Gentamicin was used as the reference antibiotic.

[2] = tested on: Staphylococcus aureus ATCC 65389; experiment: Bactericidal activity, CFU counting method; type: cell-based; conditions: S. aureus ATCC 65389; for Number of CFU/mL (× 10^7): 18 h at 37 °C, Control 21.36, Control with DMSO 20.85; for less CFU/mL (reduction of the number of CFU/mL): versus control
Procedure: as §1

[3] = MTT reduction cytotoxicity assay; type: cell-based, human; conditions: human, AGS cells (human gastric adenocarcinoma), 24 h, read-out: mean percentage of viable cells ± SD
Procedure: (§2) Cell cultures: The L929 mouse fibroblasts and human gastric adenocarcinoma cell line AGS were used for in vitro cytotoxicity assays. The cells were maintained under standard conditions (37 ^∘ C, 5% CO 2 ) in 25 cm^2 tissue culture flasks in RPMI-1640 medium supplemented with 10% fetal bovine serum (FBS) and antibiotics: 100 U/mL penicillin and 100 μ g/mL streptomycin. The cell suspension containing 10 ^8 cells in 1 mL, was obtained by treatment of confluent monolayers with 0.25% trypsin solution, washed and subcultured. Cell cultures were supplemented with medium to maintain them in log phase growth. The viability of the cells was assessed by exclusion of trypan blue dye.
(§3) Measurements of cellular metabolic activity and global growth inhibition: L929 cells were seeded into 96-well plates (2 × 10 ^5 cells/well) for 24 h, at 37 ^∘ C, 5% CO2 . Tested compounds 5a–c, 6a–c, 7a–c, 8a–c, 9b,c, 10b,c, 12a and 13a were diluted serially in RPMI-1640 medium in concentrations of 50, 20, 10, 5, 0.5 and 0.1 μ g/mL, added to the cells (100 μ L/well), and incubated under standard conditions for 24 h. The potential harmful effect of lactones on L929 and AGS cells was assessed by the ability of the cells to reduce 3-(4,5-dimethylthiazol-2-yl)-2,5-diphenyltetrazolium bromide (MTT) to formazan. The solution of MTT (5 mg/mL in PBS), was added to each well and the plates were incubated for 4h at 37 ^∘ C. Formazan crystals were dissolved with acidic isopropanol (0.1 M HCl in absolute isopropanol) and the plates were read in a plate reader (Victor 2) at 570 nm. The percentage of MTT reduction was calculated by comparing the absorbance of treated cells to that of untreated control cells. Results are expressed as the mean percentage of viable cells ± standard deviation (SD) of four independent experiments. Statistical significance was accepted at a p-value < 0.05.

[4] = tested on: AGS cell lines (human gastric adenocarcinoma); experiment: MTT reduction cytotoxicity assay; type: cell-based; conditions: Homo sapiens
Procedure: as §2, §3

[5] = MTT reduction cytotoxicity assay; type: cell-based, mouse; conditions: mouse, L929 cells (mouse fibroblasts), read-out: mean percentage of viable cells ± SD
Procedure: as §2, §3

[6] = tested on: L929 cell lines (mouse fibroblasts); experiment: MTT reduction cytotoxicity assay; type: cell-based; conditions: 24 h
Procedure: as §2, §3

Structure (SMILES)	melting point [°C]	Number of CFU/mL (× 10^7) [1]	bactericidal activity (in words) [2]	Number of CFU/mL (× 10^7) [2]	viability at 24 h, 0.1 μg/mL [3] [%]	viability at 24 h, 0.5 μg/mL [3] [%]	viability at 24 h, 5 μg/mL [3] [%]	viability at 24 h, 10 μg/mL [3] [%]	viability at 24 h, 20 μg/mL [3] [%]	viability at 24 h, 50 μg/mL [3] [%]	IC50 [4] [nM]	viability at 24 h, 0.1 μg/mL [5] [%]	viability at 24 h, 0.5 μg/mL [5] [%]	viability at 24 h, 5 μg/mL [5] [%]	viability at 24 h, 10 μg/mL [5] [%]	viability at 24 h, 20 μg/mL [5] [%]	viability at 24 h, 50 μg/mL [5] [%]	less CFU/mL (reduction of the number of CFU/mL) [2]	mean percentage of viable cells ± SD ([6]; 5 μg/mL) [%]	mean percentage of viable cells ± SD ([6]; 10 μg/mL) [%]
C[C@@H]1CC(=O)O[C@H]1[C@@H](O)c1cccc2ccccc12 (mixture of isomers) [12a, Trans-dihydro-5-((S)-hydroxy(naphthalen-1-yl)methyl)-4-methylfuran-2(3H)-one]	–	9.43 × 10^7 CFU/mL	did not show bactericidal activity	21.15 × 10^7 CFU/mL	39 ± 0.09	26 ± 0.05	22 ± 0.09	18 ± 0.05	13 ± 0.08	9 ± 0.1	4300	19 ± 0.15	15 ± 0.05	10 ± 0.02	8 ± 0.06	3 ± 0.03	2 ± 0.06	–	–	–
C[C@@H]1CC(=O)O[C@H](c2cccc3ccccc23)[C@H]1Cl (relative stereo) [5a, Trans,trans-5-chloro-tetrahydro-4-methyl-6-(naphthalen-1-yl)pyran-2-one]	157 to 158	6.41 × 10^7 CFU/mL	–	2.74 × 10^7 CFU/mL	54 ± 0.07	48 ± 0.05	43 ± 0.09	27 ± 0.1	18 ± 0.08	15 ± 0.01	1900	17 ± 0.09	15 ± 0.02	10 ± 0.03	8 ± 0.07	5 ± 0.06	1 ± 0.01	87%	–	–
C[C@@H]1CC(=O)O[C@@H]1C(I)c1ccccc1 (relative stereo) [11b, Cis-dihydro-5-(iodo(phenyl)methyl)-4-methylfuran-2(3H)-one]	86 to 87	–	–	–	–	–	–	–	–	–	–	–	–	–	–	–	–	–	–	–
C[C@@H]1CC(=O)O[C@@H]1C(I)c1ccc(F)cc1 (relative stereo) [11c, Cis-5-((4-fluorophenyl)iodomethyl)-dihydro-4-methylfuran-2(3H)-one]	118 to 119	–	–	–	–	–	–	–	–	–	–	–	–	–	–	–	–	–	–	–
CC1CC(=O)OC(c2ccccc2)C1Cl (stereo not drawn) [5b, Trans,trans-5-chloro-tetrahydro-4-methyl-6-phenylpyran-2-one]	105 to 106.5	4.06 × 10^7 CFU/mL	–	7.63 × 10^7 CFU/mL	35 ± 0.06	20 ± 0.09	16 ± 0.06	14 ± 0.12	11 ± 0.07	8 ± 0.09	2300	20 ± 0.08	18 ± 0.15	–	–	4 ± 0.02	1 ± 0.03	–	12 ± 0.05	7 ± 0.06
CC1CC(=O)OC(c2cccc3ccccc23)C1Br (stereo not drawn) [7a, Trans,trans-5-bromo-tetrahydro-4-methyl-6-(naphthalen-1-yl)pyran-2-one]	197 to 198	5.21 × 10^7 CFU/mL	–	4.63 × 10^7 CFU/mL	39 ± 0.02	26 ± 0.05	25 ± 0.1	21 ± 0.03	20 ± 0.06	8 ± 0.03	2100	25 ± 0.02	18 ± 0.12	12 ± 0.02	6 ± 0.07	2 ± 0.03	1 ± 0.12	78–83%	–	–
CC1CC(=O)OC(c2ccccc2)C1Br (stereo not drawn) [7b, Trans,trans-5-bromo-tetrahydro-4-methyl-6-phenylpyran-2-one]	111 to 112	8.63 × 10^7 CFU/mL	–	10.96 × 10^7 CFU/mL	40 ± 0.1	25 ± 0.1	23 ± 0.02	20 ± 0.06	14 ± 0.03	10 ± 0.06	3600	25 ± 0.03	18 ± 0.08	13 ± 0.12	10 ± 0.05	5 ± 0.15	2 ± 0.09	–	–	–

Continued, in another order:

melting point [°C]	Structure (SMILES)	Number of CFU/mL (× 10^7) [1]	bactericidal activity (in words) [2]	Number of CFU/mL (× 10^7) [2]	viability at 24 h, 0.1 μg/mL [3] [%]	viability at 24 h, 0.5 μg/mL [3] [%]	viability at 24 h, 5 μg/mL [3] [%]	viability at 24 h, 10 μg/mL [3] [%]	viability at 24 h, 20 μg/mL [3] [%]	viability at 24 h, 50 μg/mL [3] [%]	IC50 [4] [nM]	viability at 24 h, 0.1 μg/mL [5] [%]	viability at 24 h, 0.5 μg/mL [5] [%]	viability at 24 h, 5 μg/mL [5] [%]	viability at 24 h, 10 μg/mL [5] [%]	viability at 24 h, 20 μg/mL [5] [%]	viability at 24 h, 50 μg/mL [5] [%]	less CFU/mL (reduction of the number of CFU/mL) [2]	mean percentage of viable cells ± SD ([6]; 5 μg/mL) [%]	mean percentage of viable cells ± SD ([6]; 10 μg/mL) [%]
86 to 87	C[C@@H]1CC(=O)O[C@H]1C(O)c1ccccc1 (relative stereo) [12b, Trans-dihydro-5-(hydroxy(phenyl)methyl)-4-methylfuran-2(3H)-one]	–	–	–	–	–	–	–	–	–	–	–	–	–	–	–	–	–	–	–
118 to 119	C[C@@H]1CC(=O)O[C@H]1C(O)c1ccc(F)cc1 (relative stereo) [12c, Trans-5-((4-fluorophenyl)(hydroxy)methyl)-dihydro-4-methylfuran-2(3H)-one]	–	–	–	–	–	–	–	–	–	–	–	–	–	–	–	–	–	–	–
89 to 91	C[C@@H]1CC(=O)O[C@@H]1C(O)c1ccccc1 (relative stereo) [13b, Cis-dihydro-5-(hydroxy(phenyl)methyl)-4-methylfuran-2(3H)-one]	–	–	–	–	–	–	–	–	–	–	–	–	–	–	–	–	–	–	–
118 to 119	C[C@@H]1CC(=O)O[C@@H]1C(O)c1ccc(F)cc1 (relative stereo) [13c, Cis-5-((4-fluorophenyl)(hydroxy)methyl)-dihydro-4-methylfuran-2(3H)-one]	–	–	–	–	–	–	–	–	–	–	–	–	–	–	–	–	–	–	–
123 to 124	C[C@@H]1CC(=O)O[C@@H]1[C@@H](O)c1cccc2ccccc12 [13a, Cis-dihydro-5-((S)-hydroxy(naphthalen-1-yl)methyl)-4-methylfuran-2(3H)-one]	6.02 × 10^7 CFU/mL	–	9.12 × 10^7 CFU/mL	44 ± 0.12	39 ± 0.09	29 ± 0.05	18 ± 0.12	10 ± 0.1	8 ± 0.08	3700	16 ± 0.09	12 ± 0.02	9 ± 0.03	6 ± 0.06	5 ± 0.12	1 ± 0.07	–	–	–
